The results in this text go back to patent publication EP4289427A1, “DIHYDRO[1,8]NAPHTHYRIDIN-7-ONE AND PYRIDO[3,2-B][1,4]OXAZIN-3-ONE FOR USE IN TREATING CANCER, AND METASTASES IN PARTICULAR” (Anagenesis Biotechnologies, priority 2022, dated 2023).

For orientation: IC50 means the midpoint of a concentration-inhibition curve.

Molecules are shown by their SMILES.

The subject of data set [1] is RD cells. Kind of data set: Cytotoxicity assay (CellTiter-Glo 2.0) on RD cells. Format: cell-based, Human. The following applies: for IC50: Homo sapiens. The procedure, abridged:
(§1)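 Viability was measured as ATP-based bioluminescence (CellTiter-Glo 2.0) after compound treatment, with medium and exposure time set per cell line. Relative IC50 values were then calculated.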
A general note: ATP-based viability assays read luminescence as a measure of living cells.

For data set [2], the system named is 4T1 cells. Kind of data set: Cytotoxicity assay (CellTiter-Glo 2.0) on 4T1 cells. The format is cell-based, Mouse. The following applies: incubation 2 days; for IC50: Mus musculus, 48 h. A digest of the protocol:
as §1

Data set [3] relates to MDA-MB-231 cells. Kind of data set: Cytotoxicity assay (CellTiter-Glo 2.0) on MDA-MB-231 cells. The format is cell-based, Human. Conditions: incubation 3 days; for IC50: Homo sapiens, 72 h. The procedure, abridged:
as §1

In the next data set the test system is EoL-1 cells. Kind of data set: Cytotoxicity assay (CellTiter-Glo 2.0) on EoL-1 cells. The format is cell-based, Human. Conditions: incubation 1 day; for IC50: Homo sapiens, EOL1, 24 h. The procedure, abridged: as §1
In the next data set the test system is HUVECs. Kind of data set: Tube formation assay (anti-angiogenic activity). Format: cell-based, human. Conditions: incubation 16 to 18 hours; for IC50: Homo sapiens, HUVEC. A digest of the protocol: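 HUVECs plated at 5000 cells/well on reduced growth factor basement membrane matrix, then exposed to compounds for 16 to 18 hours at 37°C. Cells stained with calcein-AM; tube networks imaged by confocal fluorescence microscopy and quantified.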

The subject of data set [4] is MDA-MB-231 cells. Kind of data set: Scratch (wound healing) assay, cell migration. Format: cell-based, Human. The following applies: 24 hours, Figure 1. The procedure: Cell migration is involved in several pathological cancer processes such as tumor invasion, neoangiogenesis and metastasis. Scratch (or wound healing) assay is a method to study two-dimensional cell migration in vitro. It is based on the observation that cells growing in a monolayer migrate to reestablish cell contacts after a mechanical scratch wound.
The MDA-MB-231 cells were seeded into a 24-well plate and grown to confluent density. A scrape was made in each well using a pipette tip. Then, the cells monolayers were incubated for 2 hours with 5 µg/ml mitomycin C to stop cell proliferation. The cells were treated with the compounds to be tested for 24 hours. The cells were stained using CellMask Green actin tracking stain (cat.no. A57246 from Fisher Scientific) at time zero and at endpoint. Pictures were acquired using a fluorescence microscope (IXM from Molecular Device). The scratch area was measured with the ImageJ software. The recovery of the scratch area was calculated as a percentage of the scratch area at time zero.

In data set [5] the test system is 4T1 cells. The data set is described as follows: Epithelial-mesenchymal transition marker expression by qRT-PCR. The format is cell-based, Mouse. Details: key: ↗: increased expression; ↘: decreased expression; =: unchanged expression levels. Conditions: 24 hours, expression normalized against RPL13. The text has this: The epithelial-mesenchymal transition (hereafter "EMT") is a process by which epithelial cells lose their cell polarity and cell-cell adhesion while gaining migratory and invasive properties to become mesenchymal stem cells. EMT is commonly measured by quantifying both epithelial and mesenchymal marker's expression by quantitative reverse-transcription polymerase chain reaction (hereafter "qRT-PCR"). EMT inhibition is observed when epithelial markers are stable or increased while mesenchymal markers are decreased.
4T1 cells were treated with compounds to be tested or DMSO for 24 hours. 4T1 cells were then harvested directly in NucleoZol lysis buffer (cat. no. 740404.200 from Macherey-Nagel), according to the manufacturer's instructions. Total RNA was extracted using the NucleoSpin RNA set for NucleoZol (cat. no. 740406.50 from Macherey-Nagel). The quantity and purity of RNA was determined using a Quickdrop (Molecular Devices). RT-PCR was performed on 500 ng total RNA using iScript gDNA clear cDNA synthesis Kit (cat.no. 1725035 from Biorad). The qPCR was run on a QuantStudio 5 real time thermocycler (Applied Biosystems), with PowerUp SYBR Green Master Mix (cat.no. A25742 from Fisher Scientific) and the primers listed in Table 16.
Expression data of EMT markers have been normalized against expression data of the housekeeping gene RPL13.

Data set [6] relates to 4T1 cells. Kind of data set: Colony forming (clonogenic) assay. Format: cell-based, Mouse. The following applies: 6 days of treatment, Figure 2. The procedure:
Cancer stem cells are characterized by their ability to undergo virtually unlimited divisions. Colony forming assay (or clonogenic assay) is an in vitro assay designed to assess capability of single cells to grow into large colonies through clonal expansion.
4T1 cells were seeded at a density of 500 cells per well of six-well plates in 4T1 medium. Compounds to be tested were added 24 hours after seeding. After 6 days of treatment, the cells were fixed in 4% PFA and stained with 1% aqueous solution of crystal violet. Pictures of the entire wells were acquired, and the area of the positives colonies was evaluated by ImageJ software (Wayne Rasband; NIH).

In data set [7] the test system is RD cells. The data set is described as follows: Differentiation of RD cells into myotubes (alpha-actinin staining). Format: cell-based, Human. Conditions: 7 days, Figure 3. The procedure:
RD cells are cancer cells of muscle origin that arose from myogenic precursors that fail to complete muscle differentiation. One strategy to stop their progression is to differentiate them into myotubes.
To allow differentiation, RD cells were seeded at a density of 3500 cells/well in a 384-well plate coated with collagen type I, in DMEM (4,5g/L glucose) with L-Gln (cat.no. 41965-039 from Gibco) supplemented with 5% of knockout serum replacement (cat.no. 10828-028 from Gibco), 1% PenStrep (Gibco), 1% MEM NEAA (Gibco) and 0.1 mM 2-mercaptoethanol (Gibco) (hereafter "K5 medium"). Compounds to be tested were then added onto the cells and incubated for 7 days at 37°C. On day 7, cells were fixed with 4% paraformaldehyde solution and immunostained for α-actinin (cat.no. EA-53 from Sigma, at 1/30000).

Take `CSc1cc(Oc2ccnc3c2OCC(=O)N3)ccc1NC(=O)Nc1cc(C(C)(C)C)nn1-c1ccccc1` [Compound 006, 1-(3-(tert-butyl)-1-phenyl-1H-pyrazol-5-yl)-3-(2-(methylthio)-4-((3-oxo-3,4-dihydro-2H-pyrido[3,2-b][1,4]oxazin-8-yl)oxy)phenyl)urea]: the Cytotoxicity result in the data set with RD cells [1] (2 day-treatment) is recorded as “++ (50% ≤ cytotoxicity < 85%)”; with RD cells [1] (4 day-treatment), “++ (50% ≤ cytotoxicity < 85%)”; with 4T1 cells [2], “+++ (cytotoxicity ≥ 85%)”; with MDA-MB-231 cells [3], “++ (50% ≤ cytotoxicity < 85%)”; with EoL-1 cells, “+++ (cytotoxicity ≥ 85%)”. Further, the IC50 was in the range of 1 to 5 µM in the data set on RD cells [1] (48 h, 2 day-treatment); 1 to 5 µM with RD cells [1] (96 h, 4 day-treatment); 1000 to 5000 nM with 4T1 cells [2]; 1000 to 5000 nM in the data set with MDA-MB-231 cells [3]; 10 to 100 nM in the data set with EoL-1 cells; 100 to 500 nM with HUVECs. Further, in the data set with HUVECs, the Angiogenesis inhibition entry is given as “+++ (angiogenesis inhibition ≥ 80%)”. For the same compound, the “migration in the scratch assay” value in the data set with MDA-MB-231 cells [4] is on record as “inhibition of their migration”. Further, in the data set on 4T1 cells [5], the “Epithelial markers E-cadherin” value is reported as “↗”. For the same compound, the “Epithelial markers EpCAM” value in the data set with 4T1 cells [5] is on record as “↗”. For the same compound, the “Mesenchymal markers Fibronectin” value in the data set on 4T1 cells [5] was “↘”. Moreover, the “Mesenchymal markers Vimentin” value in the data set on 4T1 cells [5] is recorded as “↘”. The colony growth result with 4T1 cells [6] was “inhibition of colony growth”. For the same compound, the differentiation into myotubes result in the data set with RD cells [7] is “dose-dependent differentiation into myotubes”.
`Cc1ccc(-n2nc(C(C)(C)C)cc2NC(=O)Nc2ccc(Oc3ccnc4c3CCC(=O)N4)cc2C(F)(F)F)cn1` [Compound 017, 1-[5-tert-butyl-2-(6-methyl-3-pyridyl)pyrazol-3-yl]-3-[4-[(7-oxo-6,8-dihydro-5H-1,8-naphthyridin-4-yl)oxy]-2-(trifluoromethyl)phenyl]urea]: the Cytotoxicity entry was “++ (50% ≤ cytotoxicity < 85%)” in the data set with RD cells [1] (2 day-treatment); “+++ (cytotoxicity ≥ 85%)” with RD cells [1] (4 day-treatment); “+++ (cytotoxicity ≥ 85%)” in the data set on 4T1 cells [2]; “++ (50% ≤ cytotoxicity < 85%)” with MDA-MB-231 cells [3]; “++ (50% ≤ cytotoxicity < 85%)” in the data set with EoL-1 cells. Moreover, the IC50 in the data set with RD cells [1] (48 h, 2 day-treatment) was 1 to 5 µM; with RD cells [1] (96 h, 4 day-treatment), 1 to 5 µM; in the data set with 4T1 cells [2], under 1000 nM; in the data set with MDA-MB-231 cells [3], 1000 to 5000 nM; in the data set on EoL-1 cells, 1 to 10 nM; in the data set on HUVECs it was under 100 nM. Moreover, the Angiogenesis inhibition entry in the data set on HUVECs is reported as “+++ (angiogenesis inhibition ≥ 80%)”. Also, the “migration in the scratch assay” value in the data set on MDA-MB-231 cells [4] is recorded as “inhibition of their migration”. The “Epithelial markers E-cadherin” value in the data set with 4T1 cells [5] is on record as “↗”. Further, the “Epithelial markers EpCAM” value in the data set with 4T1 cells [5] was “↗”. In the data set on 4T1 cells [5], the “Mesenchymal markers Fibronectin” value is listed as “↘”. Besides, the “Mesenchymal markers Vimentin” value in the data set with 4T1 cells [5] was “↘”. In the data set on 4T1 cells [6], the colony growth result is given as “inhibition of colony growth”.
Regarding `CC(C)(C)c1cc(NC(=O)Nc2ccc(Oc3ccnc4c3CCC(=O)N4)cc2C(F)(F)F)n(-c2cncc(F)c2)n1` [Compound 016, 1-[5-tert-butyl-2-(5-fluoro-3-pyridyl)pyrazol-3-yl]-3-[4-[(7-oxo-6,8-dihydro-5H-1,8-naphthyridin-4-yl)oxy]-2-(trifluoromethyl)phenyl]urea], the Cytotoxicity result in the data set with RD cells [1] (2 day-treatment) was “++ (50% ≤ cytotoxicity < 85%)”; in the data set on RD cells [1] (4 day-treatment), “++ (50% ≤ cytotoxicity < 85%)”; in the data set with 4T1 cells [2] it was “+++ (cytotoxicity ≥ 85%)”; with MDA-MB-231 cells [3], “++ (50% ≤ cytotoxicity < 85%)”; in the data set on EoL-1 cells, “+++ (cytotoxicity ≥ 85%)”. The IC50 is 1 to 5 µM in the data set with RD cells [1] (48 h, 2 day-treatment); 5 to 10 µM with RD cells [1] (96 h, 4 day-treatment); under 1000 nM in the data set with 4T1 cells [2]; 1000 to 5000 nM in the data set with MDA-MB-231 cells [3]; 10 to 100 nM in the data set on EoL-1 cells; under 100 nM in the data set with HUVECs. Also, in the data set with HUVECs, the Angiogenesis inhibition entry is “+++ (angiogenesis inhibition ≥ 80%)”. Also, in the data set with MDA-MB-231 cells [4], the “migration in the scratch assay” value is reported as “inhibition of their migration”. Further, the “Epithelial markers E-cadherin” value with 4T1 cells [5] is “↗”. In the data set with 4T1 cells [5], the “Epithelial markers EpCAM” value is “↗”. Besides, the “Mesenchymal markers Fibronectin” value with 4T1 cells [5] is recorded as “↘”. In addition, in the data set on 4T1 cells [5], the “Mesenchymal markers Vimentin” value is reported as “↘”. Further, in the data set with 4T1 cells [6], the colony growth entry is “inhibition of colony growth”.
Regarding `CSc1cc(Oc2ccnc3c2OCC(=O)N3)ccc1NC(=O)Nc1cc(C(C)(C)C)nn1-c1cncc(F)c1` [Compound 018, 1-[5-tert-butyl-2-(5-fluoro-3-pyridyl)pyrazol-3-yl]-3-[2-methylsulfanyl-4-[(3-oxo-4H-pyrido[3,2-b][1,4]oxazin-8-yl)oxy]phenyl]urea], the Cytotoxicity result in the data set with RD cells [1] (2 day-treatment) is “+ (20 % ≤ cytotoxicity < 50%)”; in the data set on RD cells [1] (4 day-treatment), “++ (50% ≤ cytotoxicity < 85%)”; with 4T1 cells [2], “+++ (cytotoxicity ≥ 85%)”; in the data set with MDA-MB-231 cells [3] it was “++ (50% ≤ cytotoxicity < 85%)”; in the data set with EoL-1 cells, “+++ (cytotoxicity ≥ 85%)”. In addition, the IC50 in the data set with RD cells [1] (48 h, 2 day-treatment) is 1 to 5 µM; in the data set on RD cells [1] (96 h, 4 day-treatment), 1 to 5 µM; in the data set on 4T1 cells [2], under 1000 nM; in the data set with MDA-MB-231 cells [3], 1000 to 5000 nM; with EoL-1 cells, 1 to 10 nM; in the data set with HUVECs it was under 100 nM. The Angiogenesis inhibition result in the data set with HUVECs was “+++ (angiogenesis inhibition ≥ 80%)”. Also, the “Epithelial markers E-cadherin” value in the data set on 4T1 cells [5] is reported as “↗”. Also, the “Epithelial markers EpCAM” value in the data set on 4T1 cells [5] was “↗”. For the same compound, the “Mesenchymal markers Fibronectin” value in the data set with 4T1 cells [5] was “↘”. Also, the “Mesenchymal markers Vimentin” value in the data set on 4T1 cells [5] is “↘”. Besides, the differentiation into myotubes entry in the data set with RD cells [7] is recorded as “dose-dependent differentiation into myotubes”.
